Measurements from ChEMBL document CHEMBL1201862, “PubChem BioAssay data set” (2004).
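Five concentrations, 48 hours, 96-well plates. The concentration for 50% growth inhibition is given as GI50.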 The source made the active and inactive calls. No stated cut-off is given here; in the data, active = GI50 up to about 1.1 µM and inactive = higher.

Experiments:
Experiment in all cases: NCI tumour cell line growth inhibition, 48 h
MDA-MB-435 = tested on: MDA-MB-435
OVCAR-4 = tested on: OVCAR-4
HOP-62 = tested on: HOP-62
IGROV-1 = tested on: IGROV-1
SN12C = tested on: SN12C
OVCAR-8 = tested on: OVCAR-8
SF-539 = tested on: SF-539
NCI-H522 = tested on: NCI-H522
NCI-H23 = tested on: NCI-H23
OVCAR-5 = tested on: OVCAR-5
U-251 = tested on: U-251
HCT-15 = tested on: HCT-15
UO-31 = tested on: UO-31
M14 = tested on: M14
SNB-75 = tested on: SNB-75
NCI-H460 = tested on: NCI-H460
SNB-19 = tested on: SNB-19
OVCAR-3 = tested on: OVCAR-3
A498 = tested on: A498
HCT-116 = tested on: HCT-116

Structure (SMILES)	GI50 (MDA-MB-435)	GI50 (OVCAR-4)	GI50 (HOP-62)	GI50 (IGROV-1)	GI50 (SN12C)	GI50 (OVCAR-8)	GI50 (SF-539)	GI50 (NCI-H522)	GI50 (NCI-H23)	GI50 (OVCAR-5)	GI50 (U-251)	GI50 (HCT-15)	GI50 (UO-31)	GI50 (M14)	GI50 (SNB-75)	GI50 (NCI-H460)	GI50 (SNB-19)	GI50 (OVCAR-3)	GI50 (A498)	GI50 (HCT-116)
Fc1ccc2c(c1)nc1n2C(c2c(Cl)cccc2Cl)SC1 (stereo not given)	11.4 µM (inactive)	15 µM (inactive)	14.4 µM (inactive)	14.1 µM (inactive)	17.3 µM (inactive)	15.6 µM (inactive)	18.1 µM (inactive)	14.7 µM (inactive)	13.1 µM (inactive)	15.5 µM (inactive)	13.1 µM (inactive)	11.7 µM	15.4 µM (inactive)	16.4 µM (inactive)	13 µM (inactive)	8.17 µM (inactive)	14.1 µM (inactive)	12.9 µM (inactive)	20.9 µM (inactive)	6.41 µM (inactive)
O=C(Nc1ccc(Cl)cc1)c1cc(S(=O)(=O)Nc2n[nH]c(Nc3ccc4ccccc4c3)n2)c(SSc2cc(Cl)c(C(=O)Nc3ccc(Cl)cc3)cc2S(=O)(=O)Nc2n[nH]c(Nc3ccc4ccccc4c3)n2)cc1Cl	30.3 µM (inactive)	28 µM (inactive)	27.7 µM (inactive)	21.7 µM (inactive)	22.5 µM (inactive)	27 µM (inactive)	23.6 µM (inactive)	22.6 µM (inactive)	24.5 µM (inactive)	20.5 µM (inactive)	23.7 µM (inactive)	21.7 µM	24.2 µM (inactive)	24.2 µM (inactive)	23 µM (inactive)	26.7 µM (inactive)	21.3 µM (inactive)	26.2 µM (inactive)	23.6 µM (inactive)	18.6 µM (inactive)
COc1ccc(C(c2ccc3c(c2)OCO3)N2C(=O)CCC2C(=O)O)cc1 (stereo not given)	> 100 µM (inactive)	> 100 µM (inactive)	> 100 µM (inactive)	> 100 µM (inactive)	> 100 µM (inactive)	> 100 µM (inactive)	> 100 µM (inactive)	> 100 µM (inactive)	> 100 µM (inactive)	> 100 µM (inactive)	> 100 µM (inactive)	> 100 µM	> 100 µM (inactive)	> 100 µM (inactive)	> 100 µM (inactive)	> 100 µM (inactive)	> 100 µM (inactive)	> 100 µM (inactive)	> 100 µM (inactive)	> 100 µM (inactive)
COc1cc(OCc2ccc3nc(-c4ccccc4)c(Cl)nc3c2)cc(OC)c1OC	> 100 µM (inactive)	> 100 µM (inactive)	33.3 µM (inactive)	69.2 µM (inactive)	> 100 µM (inactive)	> 100 µM (inactive)	31.2 µM (inactive)	33.3 µM (inactive)	40.3 µM (inactive)	77.1 µM (inactive)	16.5 µM (inactive)	> 100 µM	> 100 µM (inactive)	> 100 µM (inactive)	48.4 µM (inactive)	90.2 µM (inactive)	52.7 µM (inactive)	> 100 µM (inactive)	32.5 µM (inactive)	76.6 µM (inactive)
CC(C)N(C(C)C)S(=O)(=O)C[C@]12CC[C@H](CC13OCC(CS(=O)(=O)c1ccccc1)O3)C2(C)C (stereo not given in full)	47.1 µM (inactive)	40.8 µM (inactive)	> 51.2 µM (inactive)	> 28.7 µM (inactive)	47.8 µM (inactive)	47 µM (inactive)	44.8 µM (inactive)	21.8 µM (inactive)	47.3 µM (inactive)	> 76.4 µM (inactive)	52 µM (inactive)	47 µM	69.5 µM (inactive)	47 µM (inactive)	27.6 µM (inactive)	39.2 µM (inactive)	95.7 µM (inactive)	31.3 µM (inactive)	56.6 µM (inactive)	35.9 µM (inactive)
